What all share (assay type): cell-based
In test [1] the target is T1, Gal-4 hPPARα (Homo sapiens, UniProt Q07869).
T1 construct: Plasmids pGal4-hPPARα, pGal4-hPPARγ, pGal4-hPPARδ and pG5-TK-pGL3 were constructed as previously described by Staels, Bart, et al., Nature 1998 Jun; 25
T1 sequence (Q07869 200-468 limits assumed): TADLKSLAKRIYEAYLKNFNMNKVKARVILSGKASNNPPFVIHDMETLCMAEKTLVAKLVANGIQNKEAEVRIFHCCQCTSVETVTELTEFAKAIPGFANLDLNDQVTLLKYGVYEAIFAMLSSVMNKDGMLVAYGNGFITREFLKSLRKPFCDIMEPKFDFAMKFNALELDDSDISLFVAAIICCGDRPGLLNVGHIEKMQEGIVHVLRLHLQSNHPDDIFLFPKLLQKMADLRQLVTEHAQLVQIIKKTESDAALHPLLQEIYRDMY
Briefly: Gal4-hPPARα transient transfection reporter assay in Cos cells. Particulars: luciferase reporter, 24 hours with compound, scale 1-5, read-out: Gal-4 hPPAR α EC50 (scaled number). The essentials: (§1)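 Cos cells transiently co-transfected with Gal4-hPPAR expression plasmid, pG5-TK-pGL3 luciferase reporter and β-galactosidase control, then treated 24 h with increasing compound concentrations in DMEM containing 0.2% FCS. Luciferase normalised to β-galactosidase; EC50 from curve fit, at least three experiments.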

Test [2] addresses T2, Gal-4 hPPARγ (Homo sapiens, UniProt P37231).
T2 construct: Plasmids pGal4-hPPARα, pGal4-hPPARγ, pGal4-hPPARδ and pG5-TK-pGL3 were constructed as previously described by Staels, Bart, et al., Nature 1998 Jun; 25
T2 sequence (P37231 238-505 limits assumed): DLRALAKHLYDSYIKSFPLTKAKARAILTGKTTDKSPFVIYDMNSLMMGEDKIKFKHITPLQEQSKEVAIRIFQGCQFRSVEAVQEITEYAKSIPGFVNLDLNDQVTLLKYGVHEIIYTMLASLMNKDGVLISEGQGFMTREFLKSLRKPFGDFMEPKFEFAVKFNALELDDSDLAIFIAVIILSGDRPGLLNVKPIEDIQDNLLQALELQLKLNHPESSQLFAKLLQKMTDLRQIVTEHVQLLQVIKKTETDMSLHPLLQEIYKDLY
Briefly: Gal4-hPPARγ transient transfection reporter assay in Cos cells. The conditions noted are these: luciferase reporter, 24 hours with compound, scale 1-5, read-out: Gal-4 hPPAR γ EC50 (scaled number). In a few lines: as §1

Test [3] has as its target T3, Gal-4 hPPARβ/δ (Homo sapiens, UniProt Q03181).
T3 construct: Plasmids pGal4-hPPARα, pGal4-hPPARγ, pGal4-hPPARδ and pG5-TK-pGL3 were constructed as previously described by Staels, Bart, et al., Nature 1998 Jun; 25
T3 sequence (Q03181 171-441 limits assumed): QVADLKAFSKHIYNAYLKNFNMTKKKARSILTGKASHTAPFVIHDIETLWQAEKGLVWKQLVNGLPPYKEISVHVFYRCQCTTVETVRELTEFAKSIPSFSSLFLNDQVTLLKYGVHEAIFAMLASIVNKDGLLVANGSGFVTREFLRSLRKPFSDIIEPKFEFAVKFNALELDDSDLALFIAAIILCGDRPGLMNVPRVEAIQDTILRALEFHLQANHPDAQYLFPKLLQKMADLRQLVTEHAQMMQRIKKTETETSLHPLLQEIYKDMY
The test can be described thus: Gal4-hPPARδ transient transfection reporter assay in Cos cells. Particulars: luciferase reporter, 24 hours with compound, scale 1-5, read-out: Gal-4 hPPAR β/δ EC50 (scaled number). The essentials: as §1

Test [4] addresses T4, Full Length hPPARα (Homo sapiens, UniProt Q07869).
T4 construct: Full Length; expressed in transfected cells; host or cells: Cos cells
T4 sequence (Q07869 1-468): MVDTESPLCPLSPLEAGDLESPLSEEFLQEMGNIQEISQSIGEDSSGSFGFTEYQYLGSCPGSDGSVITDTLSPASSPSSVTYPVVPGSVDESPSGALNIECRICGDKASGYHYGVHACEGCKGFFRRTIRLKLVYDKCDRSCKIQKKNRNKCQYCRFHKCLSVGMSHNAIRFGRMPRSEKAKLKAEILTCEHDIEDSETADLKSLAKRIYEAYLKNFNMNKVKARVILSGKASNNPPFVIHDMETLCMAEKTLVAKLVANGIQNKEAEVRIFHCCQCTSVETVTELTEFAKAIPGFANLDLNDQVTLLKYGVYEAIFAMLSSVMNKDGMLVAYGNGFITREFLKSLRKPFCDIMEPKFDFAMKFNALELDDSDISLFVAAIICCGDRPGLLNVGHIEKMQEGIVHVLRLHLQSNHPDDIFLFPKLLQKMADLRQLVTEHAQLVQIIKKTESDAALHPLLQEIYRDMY
The test can be described thus: Full length hPPARα transfection assay. The conditions noted are these: full length receptor; read-out: Full Length hPPAR α EC50 (scaled number). The procedure: (§2) Transient transfection assays. Cos cells were seeded in 60-mm dishes at a density of 5.5×10^5 cells/dish in Dulbecco's modified Eagle's medium (DMEM) supplemented with 10% fetal calf serum (FCS) and incubated at 37° C. for 24 hours before transfection. Cells were transfected in Opti-MEM (Gibco; Invitrogen, Carlsbad, Calif.) without FCS for 3 hours at 37° C., using polyethylenimine, with reporter and expression plasmids. The plasmid pBluescript (Stratagene, La Jolla, Calif.) was used as carrier DNA to set the final amount of DNA to 5.5 μg/dish. The pCMV-b-galactosidase expression plasmid was cotransfected as a control for transfection efficiency. Transfection was stopped by the addition of DMEM supplemented with 10% FCS, and cells were then incubated at 37° C. After 16 hours, cells were trypsinized and seeded in 96-well plates at the density of 2×10^4 cells/well and incubated for 6 hours in 10% FCS-containing DMEM. Cells were then incubated for 24 hours in DMEM containing 0.2% FCS and increasing concentrations of the compound tested or vehicle (DMSO). At the end of the experiment, cells were washed once with ice-cold PBS, lysed and the luciferase and b-galactosidase assays were performed in a luminometer and spectrophotomer. Transfection efficiencies were normalized with the b-galactosidase activity assay. Half-maximal effective concentration (EC50) was estimated using Prism software (GraphPad). All transfection experiments were performed at least three times.
(§3) In the following tables, proprietary compound EC50 values for hPPAR α, β, δ and γ are shown. The EC50 value is the concentration of a drug that induces a response halfway between the baseline and maximum, and is commonly used as a measure of drug potency. EC50 values are reported on a scale of 1 through 5, wherein the value scale is defined for each receptor as follows: […]

For test [5], the target named is T5, Full Length hPPARγ (Homo sapiens, UniProt P37231).
T5 construct: Full Length; expressed in transfected cells; host or cells: Cos cells
T5 sequence (P37231 1-505): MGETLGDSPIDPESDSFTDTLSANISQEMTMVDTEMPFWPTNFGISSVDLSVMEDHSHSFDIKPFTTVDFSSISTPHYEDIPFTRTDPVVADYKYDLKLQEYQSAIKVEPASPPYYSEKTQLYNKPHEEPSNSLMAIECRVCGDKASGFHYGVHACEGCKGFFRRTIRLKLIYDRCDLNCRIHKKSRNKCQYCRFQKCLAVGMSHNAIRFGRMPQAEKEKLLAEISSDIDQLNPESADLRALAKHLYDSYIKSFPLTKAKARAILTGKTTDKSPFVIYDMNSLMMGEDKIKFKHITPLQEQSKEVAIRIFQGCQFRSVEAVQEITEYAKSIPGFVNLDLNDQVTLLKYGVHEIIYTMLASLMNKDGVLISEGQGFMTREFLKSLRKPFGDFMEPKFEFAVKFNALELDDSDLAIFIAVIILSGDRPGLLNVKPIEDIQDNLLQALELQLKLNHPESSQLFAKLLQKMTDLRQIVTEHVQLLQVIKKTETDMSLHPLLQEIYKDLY
The test can be described thus: Full length hPPARγ transfection assay. The conditions noted are these: full length receptor; scale 1-5; read-out: Full Length hPPAR γ EC50 (scaled number). The procedure: as §2, §3

The target of test [6] is T6, Full Length hPPARβ/δ (Homo sapiens, UniProt Q03181).
T6 construct: Full Length; expressed in transfected cells; host or cells: Cos cells
T6 sequence (Q03181 1-441): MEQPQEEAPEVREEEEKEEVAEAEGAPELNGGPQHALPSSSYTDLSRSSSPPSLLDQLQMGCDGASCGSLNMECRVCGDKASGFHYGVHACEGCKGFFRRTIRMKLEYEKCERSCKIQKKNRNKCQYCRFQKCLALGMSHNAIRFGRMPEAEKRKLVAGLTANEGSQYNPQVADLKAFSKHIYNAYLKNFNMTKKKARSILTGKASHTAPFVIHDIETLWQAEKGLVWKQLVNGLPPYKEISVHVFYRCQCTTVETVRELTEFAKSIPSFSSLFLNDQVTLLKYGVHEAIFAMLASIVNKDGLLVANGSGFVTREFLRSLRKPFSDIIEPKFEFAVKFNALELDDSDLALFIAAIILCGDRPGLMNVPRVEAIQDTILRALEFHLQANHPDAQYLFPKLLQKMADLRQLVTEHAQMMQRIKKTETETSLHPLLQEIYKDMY
The test can be described thus: Full length hPPARβ/δ transfection assay. Particulars: full length receptor; scale 1-5; read-out: Full Length hPPAR β/δ EC50 (scaled number). The procedure: as §2, §3

`Cn1nc(-c2ccccc2)cc1COC(=O)c1ccc(SC(C)(C)C(=O)O)cc1` [Compound 1, 2-methyl-2-(4-(((1-methyl-3-phenyl-1H-pyrazol-5-yl)methoxy)carbonyl)phenylthio)propanoic acid]: the EC50 is 1 to 50 nM in test [1]; above 1000 nM in test [2]; above 1000 nM in test [3]; below 1 nM in test [4]; 51 to 200 nM in test [5]; above 1000 nM in test [6].
In the case of `CCCCCCCn1c(COC(=O)c2ccc(OC(C)(C)C(=O)O)c(OC)c2)nn(Cc2ccc(C(C)(C)C)cc2)c1=O` [Compound 212, 2-(4-(((1-(4-tert-butylbenzyl)-4-heptyl-5-oxo-4,5-dihydro-1H-1,2,4-triazol-3-yl)methoxy)carbonyl)-2-methoxyphenoxy)-2-methylpropanoic acid], the EC50 was below 1 nM in test [1]; 51 to 200 nM in test [2]; above 1000 nM in test [3]; below 1 nM in test [4]; 51 to 200 nM in test [5].
`CCCCCCn1c(COC(=O)c2ccc(OC(C)(C)C(=O)O)c(OC)c2)nn(Cc2ccc(C(C)(C)C)cc2)c1=O` [Compound 185, 2-(4-(((1-(4-tert-butylbenzyl)-4-hexyl-5-oxo-4,5-dihydro-1H-1,2,4-triazol-3-yl)methoxy)carbonyl)-2-methoxyphenoxy)-2-methylpropanoic acid]: the EC50 in test [1] was 1 to 50 nM; in test [2], above 1000 nM; in test [3], above 1000 nM; in test [4] it was below 1 nM.
With `CCCn1c(COC(=O)c2ccc(OC(C)(C)C(=O)O)cc2)nn(Cc2ccc(OC(F)(F)F)cc2)c1=O` [Compound 168, 2-methyl-2-(4-(((5-oxo-4-propyl-1-(4-(trifluoromethoxy)benzyl)-4,5-dihydro-1H-1,2,4-triazol-3-yl)methoxy)carbonyl)phenoxy)propanoic acid], the EC50 in test [1] was 201 to 999 nM; in test [2], above 1000 nM; in test [3] it was above 1000 nM; in test [4], 51 to 200 nM; in test [5], above 1000 nM.
Regarding `CC(C)c1ccc(-n2cc(COC(=O)c3ccc(SC(C)(C)C(=O)O)cc3)nn2)cc1` [Compound 56, 2-(4-(((1-(4-isopropylphenyl)-1H-1,2,3-triazol-4-yl)methoxy)carbonyl)phenylthio)-2-methylpropanoic acid], the EC50 in test [1] was 51 to 200 nM; in test [2], above 1000 nM; in test [3], above 1000 nM; in test [4], 1 to 50 nM; in test [5], 201 to 999 nM.
In the case of `COc1ccc(Cn2cc(COC(=O)c3ccc(SC(C)(C)C(=O)O)cc3)nn2)cc1` [Compound 68, 2-(4-(((1-(4-methoxybenzyl)-1H-1,2,3-triazol-4-yl)methoxy)carbonyl)phenylthio)-2-methylpropanoic acid], the EC50 is 51 to 200 nM in test [1], above 1000 nM in test [2], above 1000 nM in test [3] and 51 to 200 nM in test [4].
Regarding `Cc1ccc(Cn2cc(C(C)OC(=O)c3ccc(SC(C)(C)C(=O)O)cc3)nn2)cc1` (stereo not shown) [Compound 81, 2-methyl-2-(4-((1-(1-(4-methylbenzyl)-1H-1,2,3-triazol-4-yl)ethoxy)carbonyl)phenylthio)propanoic acid], the EC50 is 1 to 50 nM in test [1], above 1000 nM in test [2], above 1000 nM in test [3] and below 1 nM in test [4].
With `CCCn1c(COC(=O)c2ccc(OC(C)(C)C(=O)O)c(OC)c2)nn(Cc2ccc(C(C)(C)C)cc2)c1=O` [Compound 180, 2-(4-(((1-(4-tert-butylbenzyl)-5-oxo-4-propyl-4,5-dihydro-1H-1,2,4-triazol-3-yl)methoxy)carbonyl)-2-methoxyphenoxy)-2-methylpropanoic acid], the EC50 is 201 to 999 nM in test [1], above 1000 nM in test [2], above 1000 nM in test [3] and below 1 nM in test [4].

These data come from patent US20100184815A1 (priority 2008, published 2010).
